The record followed here is ChEMBL document CHEMBL1129671, “Substituted (pyrroloamino)pyridines: potential agents for the treatment of Alzheimer's disease” (J Med Chem, 1996).

The subject of test [1] is Mus musculus. Nature of the test: Evaluated for the prevention of TBZ ptosis by intraperitoneal administration in mice. It is filed as functional. To be noted: ip.
Test [2] has as its target Muscarinic acetylcholine receptor. Kind of test: Inhibition of radioligand [3H]QNB binding to muscarinic acetylcholine receptor in the rat forebrain in the presence of zinc.
The test system of test [3] is Mus musculus. Nature of the test: Antagonistic activity against scopolamine-induced behavioral deficits in mice by subcutaneous administration at a concentration of 1.25 mg/kg. It is filed as functional.
The species named for test [4] is Rattus norvegicus. Kind of test: Compound was tested for inhibition of [3H]norepinephrine against rat whole brain using in vitro biogenic amine uptake assay using rat brain synaptosomes. In kind it is functional.
The species entered for test [5] is Rattus norvegicus. Nature of the test: Compound was tested for inhibition of [3H]dopamine against rat striatum using in vitro biogenic amine uptake assay using rat brain synaptosomes. It is filed as functional.
Test [6] has as its system Mus musculus. Nature of the test: Antagonistic activity against scopolamine-induced behavioral deficits in mice by subcutaneous administration at a concentration of 5.0 mg/kg. It is filed as functional.
Test [7] relates to Mus musculus. Nature of the test: Antagonistic activity against scopolamine-induced behavioral deficits in mice by subcutaneous administration at a concentration of 0.31 mg/kg. It is filed as functional.
Test [8] deals with T1, Adrenergic receptor alpha-1 (Rattus norvegicus, UniProt P15823+P23944+P43140).
T1 sequence (P15823 whole entry): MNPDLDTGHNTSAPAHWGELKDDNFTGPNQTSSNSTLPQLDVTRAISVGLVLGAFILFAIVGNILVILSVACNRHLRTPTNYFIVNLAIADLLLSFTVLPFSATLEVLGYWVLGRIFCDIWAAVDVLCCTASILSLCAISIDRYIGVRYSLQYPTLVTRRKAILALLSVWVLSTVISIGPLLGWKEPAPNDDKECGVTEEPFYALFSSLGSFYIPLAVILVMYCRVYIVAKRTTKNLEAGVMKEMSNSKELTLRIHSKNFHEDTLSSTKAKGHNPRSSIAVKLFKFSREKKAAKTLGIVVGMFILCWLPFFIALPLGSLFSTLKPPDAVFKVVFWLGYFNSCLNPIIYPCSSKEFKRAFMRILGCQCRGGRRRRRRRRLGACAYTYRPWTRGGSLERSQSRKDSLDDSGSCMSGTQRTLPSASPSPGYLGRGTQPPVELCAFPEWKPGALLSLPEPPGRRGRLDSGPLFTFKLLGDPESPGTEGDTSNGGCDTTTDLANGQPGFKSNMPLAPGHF
T1 sequence (P23944 whole entry): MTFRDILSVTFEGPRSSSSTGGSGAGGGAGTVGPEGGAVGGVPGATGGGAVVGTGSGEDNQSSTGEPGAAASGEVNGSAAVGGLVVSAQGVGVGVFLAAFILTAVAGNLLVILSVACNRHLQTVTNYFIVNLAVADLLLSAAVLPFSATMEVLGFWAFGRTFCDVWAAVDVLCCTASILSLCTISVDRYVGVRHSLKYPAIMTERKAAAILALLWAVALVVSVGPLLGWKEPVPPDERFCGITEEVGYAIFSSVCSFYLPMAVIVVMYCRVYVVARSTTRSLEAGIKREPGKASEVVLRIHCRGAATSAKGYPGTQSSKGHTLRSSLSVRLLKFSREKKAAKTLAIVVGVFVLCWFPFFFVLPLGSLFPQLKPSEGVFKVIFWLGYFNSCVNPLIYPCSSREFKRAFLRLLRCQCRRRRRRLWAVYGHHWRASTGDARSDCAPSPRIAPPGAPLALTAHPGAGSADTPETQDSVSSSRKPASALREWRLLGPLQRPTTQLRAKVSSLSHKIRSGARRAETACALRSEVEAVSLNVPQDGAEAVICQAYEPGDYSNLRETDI
T1 sequence (P43140 whole entry): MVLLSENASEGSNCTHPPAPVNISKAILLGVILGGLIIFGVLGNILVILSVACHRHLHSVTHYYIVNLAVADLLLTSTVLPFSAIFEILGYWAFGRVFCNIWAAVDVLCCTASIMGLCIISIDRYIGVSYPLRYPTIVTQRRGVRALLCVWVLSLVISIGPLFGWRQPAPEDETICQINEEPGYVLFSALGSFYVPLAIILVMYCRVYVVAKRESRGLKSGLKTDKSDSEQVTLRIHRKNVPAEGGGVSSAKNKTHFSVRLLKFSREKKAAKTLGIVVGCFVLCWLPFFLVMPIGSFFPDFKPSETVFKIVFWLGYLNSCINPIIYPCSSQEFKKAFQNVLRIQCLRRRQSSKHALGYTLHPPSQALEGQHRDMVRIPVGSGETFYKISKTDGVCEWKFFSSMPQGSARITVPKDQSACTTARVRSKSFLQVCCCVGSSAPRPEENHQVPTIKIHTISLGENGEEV
Nature of the test: Compound was tested for inhibition of [3H]WB-4101 against Alpha-1 adrenergic receptor from rat whole brain membranes using in vitro adrenergic receptor binding assay. In kind it is cell membranes, Membrane.

In test [9] the target is T2, Muscarinic acetylcholine receptor M1 (Rattus norvegicus, UniProt P08482).
T2 sequence (P08482 whole entry): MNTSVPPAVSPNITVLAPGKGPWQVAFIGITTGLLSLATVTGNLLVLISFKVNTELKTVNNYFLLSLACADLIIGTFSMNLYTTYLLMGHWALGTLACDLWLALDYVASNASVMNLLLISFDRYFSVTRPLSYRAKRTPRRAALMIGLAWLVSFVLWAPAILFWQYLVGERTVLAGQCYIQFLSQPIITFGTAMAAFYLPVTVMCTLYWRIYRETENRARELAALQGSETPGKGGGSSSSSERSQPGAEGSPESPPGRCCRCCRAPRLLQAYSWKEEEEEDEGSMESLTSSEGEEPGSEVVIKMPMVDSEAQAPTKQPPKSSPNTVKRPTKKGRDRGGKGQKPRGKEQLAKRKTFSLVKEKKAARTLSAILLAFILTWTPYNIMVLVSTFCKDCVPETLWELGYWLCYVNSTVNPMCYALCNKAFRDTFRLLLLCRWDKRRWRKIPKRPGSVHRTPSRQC
Nature of the test: Compound was tested for inhibition of [3H]pirenzepine binding against Muscarinic acetylcholine receptor M1 from rat cortical membranes using in vitro cholinergic receptor binding assay. In kind it is cell membranes, Membrane.

The target of the next test is T3, Acetylcholinesterase (Rattus norvegicus, UniProt P37136).
T3 sequence (P37136 whole entry): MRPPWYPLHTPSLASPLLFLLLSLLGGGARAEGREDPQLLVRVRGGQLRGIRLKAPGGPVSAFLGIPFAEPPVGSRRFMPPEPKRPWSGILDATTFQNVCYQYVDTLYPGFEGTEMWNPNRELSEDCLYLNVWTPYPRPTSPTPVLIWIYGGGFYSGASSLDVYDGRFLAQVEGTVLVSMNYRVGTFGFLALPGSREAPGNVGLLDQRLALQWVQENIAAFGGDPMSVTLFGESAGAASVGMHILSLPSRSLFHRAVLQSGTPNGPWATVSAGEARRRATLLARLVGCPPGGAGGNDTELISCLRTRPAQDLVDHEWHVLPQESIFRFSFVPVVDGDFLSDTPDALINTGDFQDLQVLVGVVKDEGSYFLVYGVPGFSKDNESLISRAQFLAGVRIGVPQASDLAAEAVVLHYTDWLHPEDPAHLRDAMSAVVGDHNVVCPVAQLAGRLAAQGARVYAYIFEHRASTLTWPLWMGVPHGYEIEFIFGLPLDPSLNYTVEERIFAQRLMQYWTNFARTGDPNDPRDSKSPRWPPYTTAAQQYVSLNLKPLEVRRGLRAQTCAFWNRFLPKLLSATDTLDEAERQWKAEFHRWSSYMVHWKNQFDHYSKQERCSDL
Kind of test: In vitro inhibition of Acetylcholinesterase from rat striatum.

Structures are written as SMILES.

As usually defined, the ED50 is the midpoint of the dose-response relation. A word on the IC50: it is the concentration needed to halve the response being measured. The compound `C=Cc1cccn1N(C)c1ccncc1` gave an ED50 with Mus musculus [1] of 8.3 mg/kg. The half-maximal inhibitory concentration (IC50) in test [2] is 18 µM; in the test listed under Rattus norvegicus [4], 14 µM; in the test listed under Rattus norvegicus [5] it was over 20 µM; in test [8], 5.9 µM; in test [9], 5.1 µM; at Acetylcholinesterase it was over 100 µM. The results for the Response with Mus musculus [3], in the test with Mus musculus [6] and with Mus musculus [7] were 33%, 20% and 33%, respectively.
